This is an account of results in patent publication US9840528B2, “Thione-platinum(II) complexes and pharmaceutical compositions thereof” (priority 2015, dated 2017).

Series [1] has as its system HCT15 (human colon adenocarcinoma) cell line. The series can be described thus: MTT assay, in vitro cytotoxicity against HCT15. It is filed as cell-based. The settings on record: HCT15 cells; for IC50: MTT, 24 h exposure, read-out: IC50 ± SEM HCT15. The protocol: (§1) Monim-ul-Mehboob, A. A. Isab, V. Dhuna, G. Bhatia, K. Dhuna and S. Altuwaijri, New J. Chem., 39 (2015) 377-incorporated herein by reference in its entirety]. The cells were seeded at 3×10^3 cells/well in 100 μL DMEM containing 10% Fetal Bovine Serum (FBS) in 96-well tissue culture plate and incubated for 72 h at 37° C., 5% CO2, in air and 90% relative humidity in CO2 incubator. […] The medium of wells was discarded and 100 μL DMEM containing MTT (0.5 mg/ml) was added to the wells and incubated in CO2 incubator at 37° C. in dark for 4 h. After incubation, a purple colored formazan produced in the cells appeared as dark crystals in the bottom of the wells. The culture medium was discarded from each well carefully to prevent disruption of monolayer and 100 μL of dimethyl sulfoxide (DMSO) was added in each well. The solution in the wells was thoroughly mixed to dissolve the formazan crystals which produce a purple solution. The absorbance of the 96 well-plates was taken at 570 nm with Labsystems Multiskan EX ELISA reader against a reagent blank. […] The MTT assay was performed in three independent experiments, each in triplicate. […] A549 (human lung carcinoma), MCF7 (human breast cancer), HCT15 (human colon adenocarcinoma), and HeLa (human cervical cancer) cell lines. […] This cytotoxic effect was obtained by the stipulated increase in the concentrations of the complexes and cisplatin against fixed number of human cancer cells. The IC50 concentration of the complexes and Cisplatin for different human cell lines was obtained from curves between the complexes concentration and percentage viability of the cells.
For orientation: Tetrazolium dyes change colour on reduction, which living cells bring about.

Series [2] relates to MCF7 (human breast cancer) cell line. The series is described as follows: MTT assay, in vitro cytotoxicity against MCF7. It is filed as cell-based. The settings on record: MCF7 cells; for in vitro cytotoxicity in comparison, MCF7: compared with cisplatin or each other; for IC50: MTT, 24 h exposure, read-out: IC50 ± SEM MCF7. The procedure:
as §1

Series [3] relates to A549 (human lung carcinoma) cell line. The series is described as follows: MTT assay, in vitro cytotoxicity against A549. It is filed as cell-based. The settings on record: A549 cells; for in vitro cytotoxicity in comparison, A549: compared with cisplatin, carboplatin or each other; for IC50: MTT, 24 h exposure, read-out: IC50 ± SEM A549. The protocol: as §1
For series [4], the system named is HeLa (human cervical cancer) cell line. The series is described as follows: MTT assay, in vitro cytotoxicity against HeLa. Type of series: cell-based. The note with it: 24 h exposure, HeLa cells, read-out: IC50 ± SEM HeLa. The protocol:
as §1

Series [5] can be described thus: Stability in DMSO-d6 by time dependent 1H NMR. Type of series: physicochemical. The note with it: spectra after 1, 6, 12, 24, 48 and 72 h. The protocol:
Complexes (1), (5) and (6) were dissolved in DMSO-d6 and their ^1H NMR spectra were measured. The extent of decomposition over time was determined by comparing the NMR spectra collected after 1, 6, 12, 24, 48 and 72 h.

Series [6] can be described thus: Solubility in organic solvents. It is filed as physicochemical.

Entries after “also recorded” stand apart in the source; their conditions may differ.

On to `CC(C)N1CCNC1=S.CC(C)N1CCNC1=S.CC(C)N1CCNC1=S.CC(C)N1CCNC1=S.O=[N+]([O-])[O-].O=[N+]([O-])[O-].[Pt+2]` [Complex (7), Tetrakis(1-isopropylimidazolidine-2-thione)platinum(II)], for which the IC50 – broadly, the point on the concentration scale where inhibition reaches its midpoint – in series [1] worked out at 116 ± 2.09 µM; in series [2] it was 74.4 ± 1.28 µM; in series [3], 84.2 ± 1.09 µM; in series [4], 99.9 ± 2.25 µM. The “in vitro cytotoxicity in comparison, MCF7” value (shortened to “in vitro cytotoxicity … MCF7”) in series [2] was “very similar cytotoxic data and efficacy”. In series [3], the “in vitro cytotoxicity in comparison, A549” value (from here on “in vitro cytotoxicity … A549”) was “almost equal cytotoxicity”.

For `N.N.O=C([O-])C1(C(=O)[O-])CCC1.[Pt+2]` [Carboplatin, carboplatin, reference compound], the IC50 in series [1] amounted to 63.3 ± 1.58 µM; in series [2], 53.2 ± 1.65 µM; in series [3] it was 70.2 ± 1.7 µM; in series [4], 55 ± 0.94 µM.

`CCN1CCNC1=S.CCN1CCNC1=S.CCN1CCNC1=S.CCN1CCNC1=S.[Cl-].[Cl-].[Pt+2]` [Complex (2), Tetrakis(1-ethylimidazolidine-2-thione)platinum(II)]: the “change in chemical shifts and splitting patterns in time dependent 1H NMR spectra (extent of decomposition)” value in series [5] is given as “No significant change”. The “in vitro cytotoxic efficacy in comparison, HCT15” value in series [1] (compared with cisplatin and carboplatin) is “lies in between cisplatin's and carboplatin's”. For the same molecule, the IC50 in series [1] came out at 41.6 ± 1.53 µM. In addition, in series [2], it took 11.4 µM to reach the 80% level (IC80); the “in vitro cytotoxicity … MCF7” value is listed as “two-fold better cytotoxic agent against the MCF7 cell line than cisplatin; also recorded: two-fold better as a cytotoxic agent than cisplatin”; the IC50 worked out at 11.4 ± 1.34 µM. Also, in series [3], the “in vitro cytotoxicity … A549” value was “comparable to that of cisplatin; also recorded: almost two times better than that of carboplatin” and the half-maximal inhibitory concentration (IC50) is 37.1 ± 1.23 µM. Further, the IC50 in series [4] was determined as 79.2 ± 1.95 µM.

Consider `CN1CCNC1=S.CN1CCNC1=S.CN1CCNC1=S.CN1CCNC1=S.O.O.[Cl-].[Cl-].[Pt+2]` [Complex (1), Tetrakis(1-methylimidazolidine-2-thione)platinum(II)], for which, in series [6] (CDCl3), the “solubility in CDCl3” value is given as “moderately soluble”. Besides, in series [6] (DMSO and DMF), the “solubility in DMSO and DMF” value was “completely soluble”. In addition, the “change in chemical shifts and splitting patterns in time dependent 1H NMR spectra (extent of decomposition)” value in series [5] was “No significant change”. Besides, the half-inhibitory concentration (IC50) worked out at 147 ± 1.77 µM in series [1], 74.6 ± 1.54 µM in series [2], 55.5 ± 1.08 µM in series [3] and 142 ± 2.42 µM in series [4]. The “in vitro cytotoxicity … MCF7” value in series [2] is “very similar cytotoxic data and efficacy”. The “in vitro cytotoxicity … A549” value in series [3] was “in between cisplatin and carboplatin”.

In the case of `CCCN1CCNC1=S.CCCN1CCNC1=S.CCCN1CCNC1=S.CCCN1CCNC1=S.[Cl-].[Cl-].[Pt+2]` [Complex (3), Tetrakis(1-propylimidazolidine-2-thione)platinum(II)], the IC50 in series [1] came out at 95.6 ± 2.14 µM; in series [2], 62.9 ± 1.51 µM; in series [3], 59.2 ± 2.6 µM; in series [4] it was 133 ± 1.97 µM. Moreover, in series [3], the “in vitro cytotoxicity … A549” value is “in between cisplatin and carboplatin”.

For `S=C1NCCCCN1.S=C1NCCCCN1.S=C1NCCCCN1.S=C1NCCCCN1.[Cl-].[Cl-].[Pt+2]` [Complex (6), Tetrakis(1,3-diazepane-2-thione)platinum(II)], the half-inhibitory concentration (IC50) was 108 ± 2.03 µM in series [1], 121 ± 3.36 µM in series [2], 119 ± 2.25 µM in series [3] and 92.5 ± 2.45 µM in series [4].

Consider `CC(C)N1CCNC1=S.CC(C)N1CCNC1=S.CC(C)N1CCNC1=S.CC(C)N1CCNC1=S.[Cl-].[Cl-].[Pt+2]` [Complex (4), Tetrakis(1-isopropylimidazolidine-2-thione)platinum(II)], for which the IC50 in series [1] was determined as 122 ± 1.75 µM; in series [2] it was 78.1 ± 1.45 µM; in series [3], 85.7 ± 1.35 µM; in series [4], 95.44 ± 0.88 µM. Besides, the “in vitro cytotoxicity … MCF7” value in series [2] was “very similar cytotoxic data and efficacy”. The “in vitro cytotoxicity … A549” value in series [3] is “almost equal cytotoxicity”.

For `CCN1CCCNC1=S.CCN1CCCNC1=S.CCN1CCCNC1=S.CCN1CCCNC1=S.[Pt+2]` [Complex (5), Tetrakis[1-ethyltetrahydropyrimidine-2(1H)-thione]platinum(II)], the IC50 in series [1] turned out to be 159 ± 2.9 µM; in series [2] it was 95 ± 2.02 µM; in series [3], 137 ± 1.77 µM; in series [4] it was 166 ± 2.01 µM.

With `N.N.[Cl][Pt][Cl]` [Cisplatin, cisplatin, reference compound], the IC50 came to 26.6 ± 1.07 µM in series [1], 21.3 ± 1.54 µM in series [2], 36.9 ± 1.88 µM in series [3] and 18.1 ± 1.36 µM in series [4]. Also, the IC80 (usually the point of the concentration-response curve where the effect stands at 80%) in series [2] was 21.3 µM.
